According to patent publication US9579325B2, “Modulators of TNF-α signaling” (Genzyme Corporation, priority 2000, dated 2017):
pIC50: −log10 of the molar value.

Legend:
L929 cells = experiment: TNF High Throughput Screen (TNF-α driven apoptosis assay); assay type: cell-based, mouse; conditions: Mus musculus, human TNF-α + actinomycin D, read-out: TNFα IC50
Method in brief: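 Mouse L929 cells were pretreated with compound for 2 hours, then given human TNF-α plus actinomycin D (40 μg/ml final) overnight. Surviving cells were stained with crystal violet, solubilised in methanol and read at 595 nm. Values are % inhibition at 1 μM (0 = TNF alone, 100 = no TNF) or IC50 from sigmoidal fits of dilution series.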

male rats = experiment: Inflammatory Bowel Disease model: rat DNBS distal colitis; assay type: in vivo; conditions: 100 mg/kg orally, 7 doses
Experimental: Groups of three male rats weighing 150+/−10 g and fasted for 24 hours were used. Distal colitis was induced by intracolonic instillation of 0.5 ml/rat DNBS (2,4-dinitrobenzene sulfonic acid, 60 mg/ml in ethanol 30%) after which air (2 ml) was gently injected through the cannula to ensure that the solution remains in the colon. A test compound was administered orally 24 and 2 hours before DNBS-instillation and then daily for 5 days in a total of 7 doses. The animals were sacrificed 24 hours after the final dose of test compound administration and each colon was removed and weighed.

[1] = Pharmacokinetic parameters; assay type: in vivo; conditions: in vivo

For `N#Cc1cccc(C(C(=O)NCC(c2ccccc2)c2ccccc2)N(CCc2c[nH]cn2)C(=O)c2ccccc2C(=O)c2ccccc2)c1` (stereo not shown) [Compound 44], the pIC50 (L929 cells) was 6.39, the “Inflammatory Bowel Disease: Rat DNBS model % inhibition of colonic weight gain” value (male rats) was 44 +/− 8 @ 100 mg/kg % and the bioavailability ([1]; po, species not given) was 26%. The half-life ([1]; unit and species not given, read-out: Pharmacokinetic Parameters t1/2 (converted)) was 2.3 h.
